Measured values as given in ChEMBL document CHEMBL1138383, “2-Arylidenedihydroindole-3-ones: design, synthesis, and biological activity on bladder carcinoma cell lines” (2007).

What was measured:
[1] = Effect on viability of DAG1 cells with FGFR3 S249C mutation at 10 uM after 72 hrs; assay type: functional, Homo sapiens
[2] = test system: RT-112; assay: Effect on viability of RT112 cells overexpressing wild-type FGFR3 at 10 uM after 72 hrs; assay type: functional, Homo sapiens
[3] = test system: J82; assay: Effect on viability of J82 cells with FGFR3 K650E mutation at 10 uM after 72 hrs; assay type: functional, Homo sapiens
[4] = test system: RT-112; assay: Induction of apoptosis in RT112 cells overexpressing wild-type FGFR3 at 10 uM after 48 hrs by flow cytometry; assay type: functional, Homo sapiens
[5] = Induction of apoptosis in DAG1 cells with FGFR3 S249C mutation at 10 uM after 48 hrs by flow cytometry; assay type: functional, Homo sapiens
[6] = Decrease in p-Pyk2 antigen expression level in DAG1 cells with FGFR3 S249C mutation at 10 uM after 6 hrs by flow cytometry relative to control; assay type: functional, cell-based; conditions: Homo sapiens
[7] = test system: RT-112; assay: Decrease in p-Stat5 antigen expression level in RT112 cells overexpressing wild-type FGFR3 at 10 uM after 6 hrs by flow cytometry relative to control; assay type: functional, Homo sapiens
[8] = test system: J82; assay: Induction of apoptosis in J82 cells with FGFR3 K650E mutation at 10 uM after 48 hrs by flow cytometry; assay type: functional, Homo sapiens
[9] = test system: RT-112; assay: Decrease in p-Pyk2 antigen expression level in RT112 cells overexpressing wild-type FGFR3 at 10 uM after 6 hrs by flow cytometry relative to control; assay type: functional, Homo sapiens
[10] = Decrease in p-Stat5 antigen expression level in DAG1 cells with FGFR3 S249C mutation at 10 uM after 6 hrs by flow cytometry relative to control; assay type: functional, cell-based; conditions: Homo sapiens

SMILES | Activity [1] | Activity [2] | Activity [3] | Activity [4] | Activity [5] | Activity [6] | Activity [7] | Activity [8] | Activity [9] | Activity [10]
COc1cc2c(c(OC)c1)C(=O)/C(=C/c1ccc(Cl)cc1)N2 | 99% | 93% | 94% |  |  |  |  |  |  | 
COc1cc2c(c(OC)c1)C(=O)/C(=C/c1[nH]cnc1C)N2 | 89% | 92% | 90% |  |  |  |  |  |  | 
CCc1ccc(/C=C2\Nc3cc(OC)cc(OC)c3C2=O)cc1 | 98% | 97% | 99% |  |  |  |  |  |  | 
COc1cc2c(c(OC)c1)C(=O)/C(=C/c1c(F)cccc1Cl)N2 | 91% | 93% | 95% |  |  |  |  |  |  | 
COc1cc2c(c(OC)c1)C(=O)/C(=C/c1ncc[nH]1)N2 | 90% | 92% | 89% |  |  |  |  |  |  | 
COc1cc2c(c(OC)c1)C(=O)/C(=C/c1ccccc1F)N2 | 58% | 48% | 97% | 20% | 86% | 2 | 2.5 | 3% | 1.3 | 9.5
